One compound from patent publication US7572768B2, “Methods for identifying compounds for regulating muscle mass or function using corticotropin releasing factor receptors” (priority 2001, dated 2009) can be followed below.

Assay [1] concerns denervation-induced atrophy of skeletal muscle. In words: mouse sciatic nerve denervation atrophy model. The assay is classed as in vivo. Here is the method:
Legend: A—physiological saline (control); B—sauvagine (0.01 mg/kg)+theophylline; C—sauvagine (0.03 mg/kg)+theophylline; D—sauvagine (0.1 mg/kg)+theophylline; E—sauvagine (1.0 mg/kg)+theophylline; *—p≦0.05 compared to saline. Following denervation of the right sciatic nerve, male mice were injected subcutaneously in the midscapular region twice daily with sauvagine, at the doses indicated above or vehicle control (physiological saline) for nine days. Sauvagine was co-administered with 30 mg/kg theophylline. On day nine, the medial gastrocnemius muscle was removed and weighed to determine the degree of atrophy.
Legend: A—water (control); B—sauvagine (0.1 mg/kg/d); C—sauvagine (0.3 mg/kg/d); D—sauvagine (1.0 mg/kg/d); *—p≦0.05 compared to water. Following denervation of the right sciatic nerve, male mice were dosed with either sauvagine or vehicle control (physiological saline) by continuous infusion using an Alzet osmotic minipump at 5 μl/hr until the end of the experimental period (without additional theophylline). The daily delivered dose of sauvagine is indicated above. Minipump implantation was performed at the time of sciatic nerve denervation. On day nine the tibialis anterior muscle was removed and weighed to determine the degree of atrophy.
Legend: A—water (control); B—sauvagine (1 mg/kg/d); C—urocortin (1.0 mg/kg/d); *—p≦0.05 compared to water. Following denervation of the right sciatic nerve, male mice were dosed with the above indicated agents or vehicle control (physiological saline) by continuous infusion using an Alzet osmotic minipump at 5 μl/hr until the end of the experimental period (without additional theophylline). The daily delivered dose of the agents is indicated above. Minipump implantation was performed at the same time as the sciatic nerve denervation. On day nine the tibialis anterior muscle was removed and weighed to determine the degree of atrophy.
Legend: A-C—wild-type mice; D-F—CRF2R knockout mice. A and D—water (control); B and E—sauvagine (0.3 mg/kg/d); C and F—sauvagine (1.0 mg/kg/d); *—p≦0.05 compared to saline. Following denervation of the right sciatic nerve, female wild-type and CRF2R knockout mice were dosed with sauvagine or vehicle control by continuous infusion using an Alzet osmotic minipump at 5 μl/hr for nine days at the daily delivered dose indicated above. On day nine, the tibialis anterior muscle was removed and weighed to determine the degree of atrophy.
The sciatic nerve denervation atrophy model involves anesthetizing the animal followed by the surgical removal of a short segment of either the right or left sciatic nerve, e.g., in mice the sciatic nerve is isolated approximately at the midpoint along the femur and a 3-5 mm segment is removed. This denervates the lower hind limb musculature resulting in atrophy of these muscles. Typically, innervation to the biceps femoris is left intact to provide satisfactory motion of the knee for virtually normal ambulation. Typically, in untreated animals, muscle mass of the denervated muscles is reduced 30-50% ten days following denervation. Following denervation, test compounds are administered e.g., by injection or by continuous infusion, e.g., via implantation of an osmotic minipump (e.g., Alzet, Palo Alto, Calif.), to determine their effect on denervation induced skeletal muscle atrophy. At various times following denervation, the animals are euthanized and lower leg muscles are dissected rapidly from both the denervated and nondenervated legs, the muscles, cleaned of tendons and connective tissue, are weighed. The extent of atrophy in the affected muscles is analyzed, for example, by measuring muscle mass, muscle cross-sectional area, myofiber cross-sectional area or contractile protein content.

In assay [2] the test system is glucocorticoid-induced muscle atrophy. In words: mouse glucocorticoid-induced atrophy model. Format: in vivo. The settings on record: male mice, dexamethasone 1.2 mg/kg/d in drinking water, 0.1-1.0 mg/kg/d by osmotic minipump, nine days. Here is the method: Legend: A—water only with no dexamethasone included in drinking water (non-atrophied control); B—water+dexamethasone (atrophied control); C—sauvagine (0.1 mg/kg/d)+dexamethasone; D—sauvagine (0.3 mg/kg/d)+dexamethasone; E—sauvagine (1.0 mg/kg/d)+dexamethasone; *—p≦0.05 compared to water; #—p≦0.05 compared to water+dexamethasone. Following the addition of the glucocorticoid, dexamethasone, to the drinking water (1.2 mg/kg/d), male mice were dosed with the above indicated agents or vehicle control (physiological saline) by continuous infusion using an Alzet osmotic minipump at 5 μl/hr until the end of the experimental period (without additional theophylline). The daily delivered dose of sauvagine is as indicated above. Minipump implantation was performed at the time of initiation of dexamethasone exposure. Nine days following the initiation of dosing sauvagine, the medial gastrocnemius and tibialis anterior muscles were removed and weighed to determine the degree of atrophy.
The glucocorticoid-induced atrophy model involves the administration of a glucocorticoid to the test animal, e.g., 1.2 mg/kg/day of dexamethasone in the drinking water. […] At various times following glucocorticoid administration, the extent of atrophy in the affected muscles is analyzed as described above for the denervation model.

For `CC[C@H](C)[C@H](NC(=O)[C@@H](NC(=O)[C@H](CC(=O)O)NC(=O)[C@H](CC(C)C)NC(=O)[C@H](CC(C)C)NC(=O)[C@H](CC(C)C)NC(=O)[C@H](CCCNC(=N)N)NC(=O)[C@H](CC(N)=O)NC(=O)[C@H](CC(N)=O)NC(=O)[C@H](C)NC(=O)[C@H](C)NC(=O)[C@H](CCC(N)=O)NC(=O)[C@H](CCC(N)=O)NC(=O)[C@H](CCCCN)NC(=O)[C@H](CCC(=O)O)NC(=O)[C@H](CCCCN)NC(=O)[C@H](CCC(=O)O)NC(=O)[C@H](CCC(N)=O)NC(=O)[C@H](CCCCN)NC(=O)[C@H](CCC(=O)O)NC(=O)[C@@H](NC(=O)[C@H](CCC(=O)O)NC(=O)[C@@H](NC(=O)[C@H](CCSC)NC(=O)[C@H](CCCCN)NC(=O)[C@H](CCCNC(=N)N)NC(=O)[C@H](CC(C)C)NC(=O)[C@H](CC(C)C)NC(=O)[C@H](CCC(=O)O)NC(=O)[C@H](CC(C)C)NC(=O)[C@H](CO)NC(=O)[C@H](CC(C)C)NC(=O)[C@H](CC(=O)O)NC(=O)[C@@H](NC(=O)[C@H](CO)NC(=O)[C@@H](NC(=O)[C@@H]1CCCN1C(=O)[C@@H]1CCCN1C(=O)CNC(=O)[C@@H]1CCC(=O)N1)[C@@H](C)CC)[C@@H](C)CC)[C@@H](C)CC)[C@@H](C)CC)[C@@H](C)O)C(N)=O` [sauvagine], the “denervation-induced atrophy of the medial gastrocnemius muscle (muscle weight)” value in assay [1] (FIG. 1, male mice, 0.01-1.0 mg/kg s.c. twice daily + 30 mg/kg theophylline, nine days) is reported as “inhibits denervation-induced atrophy”. Besides, the “denervation-induced atrophy of the tibialis anterior muscle (muscle weight)” value is “inhibits denervation-induced atrophy” in assay [1] (FIG. 2, male mice, 0.1-1.0 mg/kg/d continuous infusion by osmotic minipump, no theophylline, day nine); “inhibit denervation-induced atrophy” in assay [1] (FIG. 5, male mice, 1 mg/kg/d continuous infusion by osmotic minipump, no theophylline, day nine); “inhibits the atrophy” in assay [1] (FIG. 8, female wild-type mice, 0.3 and 1.0 mg/kg/d by osmotic minipump, nine days). Besides, the “glucocorticoid-induced atrophy of the tibialis anterior muscle (muscle weight)” value in assay [2] (FIG. 3A) is “inhibits glucocorticoid-induced muscle atrophy”. Besides, the “glucocorticoid-induced atrophy of the medial gastrocnemius muscle (muscle weight)” value in assay [2] (FIG. 3B) is “inhibits glucocorticoid-induced muscle atrophy”.
